Test results as given in patent US20110038957A1, “NOVEL NUTRACEUTICAL COMPOSITIONS CONTAINING STEVIA EXTRACT OR STEVIA EXTRACT CONSTITUENTS AND USES THEREOF” (priority 2007, published 2011).
Like-named read-outs stand apart in the source and are kept apart here.

What was measured:
[1] = test system: pCREB (activated form of the cAMP response element binding protein); experiment: Hippocampal slice cultures, immunohistochemistry of synaptic marker pCREB; type: cell-based, Wistar rats; set-up: key: ++++ shows a qualitative maximal activation; ++ and + signify a half-maximum and a moderate activation, respectively; ++ and + signify a half-maximum and a moderate activation, respectively; ± indicates no change in immunoreactivity; details: 15 min treatment after 48 h in culture; vs sister cultures treated with buffer
Experimental: (§1) Seven-day-old Wistar rats were decapitated using a guillotine. In less than 1 minute the skull was opened, the cerebral hemispheres were separated and transferred and both hippocampi were dissected and transferred into ice-cold buffer containing 137 mM NaCl, 5 mM KCl, 0.85 mM Na2HPO4, 1.5 mM CaCl2, 0.66 mM KH2PO4, 0.28 mM MgSO4, 1 mM MgCl2, 2.7 mM NaHCO3, 1 mM Kynurenic acid and 0.6% D-glucose. Transverse hippocampal slices (400 μm) were prepared using a vibrating blade microtome (VT1200S; Leica Microsystems (Schweiz) AG, Heerbrugg, Switzerland) in the same buffer. Hippocampal slices were individually placed on membrane inserts (Millicell Culture Plate Inserts, 0.4 μm) and cultivated at 35° C., 5% CO2, 95% humidity in a medium containing a 1:1 mixture of BME and MEM (both from Invitrogen) containing 25% heat-inactivated horse serum, 1× GlutaMAX, 1× Penicillin/Streptomycin, 0.6% glucose and 1 mM Kynurenic acid (Stoppini 1991 J. Neurosci. Methods 37(2):173-82). After 48 h in culture, synaptic NMDA receptors were activated by addition of Stevia extract, its major constituents or control substances for 15 min in 140 mM NaCl, 5 mM KCl, 1.3 mM CaCl2, 25 mM HEPES (pH 7.3), 33 mM D-glucose and 0.02 mM bicuculline methiodide. […] An additional positive control comprised the addition of 200 μM glycine to sister cultures. After the treatments, sections were washed and fixed for immunohistochemistry. Markers of enhanced synaptic activity, normally associated with long-term potentiation, representing an ex vivo model of learning and memory were quantitated (see Table 3, below). Treatment of hippocampal cultures with Stevia extract, steviol, isosteviol and stevioside induced one or more biochemical markers typical for LTP (pCREB: activated form of the cAMP response element binding protein; pMAPK: activated form of the mitogen-activated protein kinase; […]

[2] = target: T1, human glycine transporter 1b (GlyT1) (Homo sapiens, UniProt P48067); experiment: Inhibition of glycine transporter 1 in a cellular assay ([3H]-glycine uptake into CHO cells); type: cell-based; details: pure compounds, CHO cells expressing GlyT1, 60 nM [3H]-glycine, 30 minutes, room temperature; for IC50: read-out: IC50 for tritiated glycine uptake
T1 construct: expressed in transfected cells
T1 sequence (P48067 1-652 isoform P48067-3): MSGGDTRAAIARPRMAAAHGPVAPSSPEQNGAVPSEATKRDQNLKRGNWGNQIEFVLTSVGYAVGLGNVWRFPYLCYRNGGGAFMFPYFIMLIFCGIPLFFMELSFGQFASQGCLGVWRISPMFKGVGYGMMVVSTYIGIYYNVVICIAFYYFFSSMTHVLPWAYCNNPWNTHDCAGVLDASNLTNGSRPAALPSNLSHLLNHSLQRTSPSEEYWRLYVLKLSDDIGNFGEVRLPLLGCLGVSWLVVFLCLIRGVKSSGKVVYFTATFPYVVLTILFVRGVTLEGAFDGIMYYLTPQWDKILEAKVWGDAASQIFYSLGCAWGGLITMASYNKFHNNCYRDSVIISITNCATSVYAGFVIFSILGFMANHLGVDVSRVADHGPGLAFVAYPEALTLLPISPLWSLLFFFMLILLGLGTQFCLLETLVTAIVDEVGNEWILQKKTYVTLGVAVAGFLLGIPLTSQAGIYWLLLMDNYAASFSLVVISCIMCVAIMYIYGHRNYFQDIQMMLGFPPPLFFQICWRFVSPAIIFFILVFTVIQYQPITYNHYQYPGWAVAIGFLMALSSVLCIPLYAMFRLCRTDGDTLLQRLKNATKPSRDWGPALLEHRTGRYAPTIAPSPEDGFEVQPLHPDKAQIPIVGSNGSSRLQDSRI
Experimental: CHO cells stably expressing the human glycine transporter 1b cDNA (GlyT1) were routinely grown in Dulbecco's Modified Eagle's Medium (Invitrogen, Carlsbad, USA) containing 10% dialysed foetal calf serum, penicillin, streptomycin, proline and the antibiotic G418. Cells were harvested by trypsinisation one day prior to the assay and were seeded in the above mentioned medium. Immediately prior to the assay, the medium was replaced by uptake buffer containing 150 mM NaCl, 1 mM CaCl2, 2.5 mM KCl, 2.5 mM MgCl2, 10 mM Glucose and 10 mM N-2-hydroxyethylpiperazine-N′-2-ethanesulfonic acid (HEPES buffer).
Glycine uptake into the cells was determined by addition of 60 nM radio-labelled [^3H]-glycine (Amersham Biosciences GE Healthcare, Slough, UK) and incubation for 30 minutes at room temperature. Following removal of unincorporated label by gentle washing three times with the above buffer, incorporated glycine was quantified by liquid scintillation counting.

[3] = test system: GluR1 (cell surface presence of AMPA receptor 1); experiment: Hippocampal slice cultures, immunohistochemistry of synaptic marker GluR1; type: cell-based, Wistar rats; set-up: key to GluR1, relative activation of synaptic marker: ++++ shows a qualitative maximal activation; ++ and + signify a half-maximum and a moderate activation, respectively; ++ and + signify a half-maximum and a moderate activation, respectively; ± indicates no change in immunoreactivity; details: 15 min treatment after 48 h in culture; vs sister cultures treated with buffer
Experimental: as §1

[4] = test system: pMAPK (activated form of the mitogen-activated protein kinase); experiment: Hippocampal slice cultures, immunohistochemistry of synaptic marker pMAPK; type: cell-based, Wistar rats; set-up: key: ++++ shows a qualitative maximal activation; ++ and + signify a half-maximum and a moderate activation, respectively; ++ and + signify a half-maximum and a moderate activation, respectively; ± indicates no change in immunoreactivity; details: 15 min treatment after 48 h in culture; vs sister cultures treated with buffer
Experimental: as §1

NMDA receptor [5] = details: mouse hippocampal slice, Schaffer collateral stimulation (Bergeron et al 1998); cited from earlier work
adult mice [6] = details: systemic administration, adult mice (Kinney et al 2003); cited from earlier work
adult mice [7] = details: systemic administration (Kinney et al 2003); cited from earlier work
NMDA receptor [8] = details: rat hippocampal slice, Schaffer collateral stimulation (Bergeron et al 1998); cited from earlier work

Compound | pCREB, relative activation of synaptic marker [1] | IC50 for tritiated glycine uptake [2] | pMAPK, relative activation of synaptic marker [4] | other results
C=C1C[C@@]23CC[C@H]4[C@@](C)(CCC[C@@]4(C)C(=O)O)[C@@H]2CC[C@]1(O)C3 [Steviol] | ++ | inactive | ± | GluR1, percentage increase of control values [3]: 340%
CN(CC[C@@H](Oc1ccc(C(F)(F)F)cc1)c1ccccc1)CC(=O)O [ORG24598, reference compound] | – | – | – | IC50 [2]: 0.02 µM
C=C1C[C@@]23CC[C@H]4[C@@](C)(CCC[C@@]4(C)C(=O)O[C@@H]4O[C@H](CO)[C@@H](O)[C@H](O)[C@H]4O)[C@@H]2CC[C@]1(O[C@@H]1O[C@H](CO)[C@@H](O)[C@H](O[C@@H]2O[C@H](CO)[C@@H](O)[C@H](O)[C@H]2O)[C@H]1O[C@@H]1O[C@H](CO)[C@@H](O)[C@H](O)[C@H]1O)C3 [Rebaudioside A] | ± | inactive | ± | GluR1, relative activation of synaptic marker [3]: ±
C=C1C[C@@]23CC[C@H]4[C@@](C)(CCC[C@@]4(C)C(=O)O[C@@H]4O[C@H](CO)[C@@H](O)[C@H](O)[C@H]4O)[C@@H]2CC[C@]1(O[C@@H]1O[C@H](CO)[C@@H](O)[C@H](O)[C@H]1O[C@@H]1O[C@H](CO)[C@@H](O)[C@H](O)[C@H]1O)C3 [Stevioside] | ± | inactive | ++ | GluR1, relative activation of synaptic marker [3]: ±
CNCC(=O)O [Sarcosine, reference compound] | – | – | – | IC50 [2]: 35.9 µM
Isosteviol | + | inactive | ± | GluR1, percentage increase of control values [3]: 361%
CN(CCC(Oc1ccc(-c2ccccc2)cc1)c1ccc(F)cc1)CC(=O)O (stereo not shown) [NFPS, N-[3-(4′-fluorophenyl)-3-(4′-phenylphenoxy)] propylsarcosine] | – | – | – | NMDA receptor responses in CA1 pyramidal cells (NMDA receptor [5]): enhanced NMDA receptor responses in CA1 pyramidal cells were observed; Prepulse inhibition of the acoustic startle response (adult mice [6]): enhanced prepulse inhibition of the acoustic startle response; LTP in the dentate gyrus (adult mice [7]): increased LTP in the dentate gyrus; NMDA receptor responses in CA1 pyramidal cells (NMDA receptor [8]): enhanced NMDA receptor responses in CA1 pyramidal cells were observed
